Experimental data: publication PMC9910069 (ACS Omega, 2023)

Columns and labels:
[1] = target: Electric eel AChE (type-VI-S) (Electrophorus electricus, UniProt O42275); test: Anti-cholinesterase inhibition assay; assay type: biochemical
equine BChE = equine BChE (Equus caballus, UniProt P81908); test: Anti-cholinesterase inhibition assay; assay type: biochemical
Sequence of equine BChE (P81908 whole entry): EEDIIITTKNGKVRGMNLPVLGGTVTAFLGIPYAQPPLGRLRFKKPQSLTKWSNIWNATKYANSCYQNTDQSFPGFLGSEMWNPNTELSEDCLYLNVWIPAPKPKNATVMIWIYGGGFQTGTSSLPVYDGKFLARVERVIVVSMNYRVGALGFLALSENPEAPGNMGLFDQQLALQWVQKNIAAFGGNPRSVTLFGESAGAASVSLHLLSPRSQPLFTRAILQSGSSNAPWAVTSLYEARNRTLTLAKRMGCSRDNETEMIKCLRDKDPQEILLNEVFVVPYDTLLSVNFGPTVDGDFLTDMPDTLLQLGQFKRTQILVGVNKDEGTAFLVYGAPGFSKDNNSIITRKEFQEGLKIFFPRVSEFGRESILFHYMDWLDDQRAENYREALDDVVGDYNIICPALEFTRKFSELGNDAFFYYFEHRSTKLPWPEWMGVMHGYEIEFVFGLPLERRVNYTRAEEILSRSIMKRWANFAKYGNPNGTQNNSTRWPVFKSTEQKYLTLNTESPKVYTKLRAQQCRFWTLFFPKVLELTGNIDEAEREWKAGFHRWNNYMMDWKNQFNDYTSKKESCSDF

Sequence of Electric eel AChE (type-VI-S) (O42275 24-633): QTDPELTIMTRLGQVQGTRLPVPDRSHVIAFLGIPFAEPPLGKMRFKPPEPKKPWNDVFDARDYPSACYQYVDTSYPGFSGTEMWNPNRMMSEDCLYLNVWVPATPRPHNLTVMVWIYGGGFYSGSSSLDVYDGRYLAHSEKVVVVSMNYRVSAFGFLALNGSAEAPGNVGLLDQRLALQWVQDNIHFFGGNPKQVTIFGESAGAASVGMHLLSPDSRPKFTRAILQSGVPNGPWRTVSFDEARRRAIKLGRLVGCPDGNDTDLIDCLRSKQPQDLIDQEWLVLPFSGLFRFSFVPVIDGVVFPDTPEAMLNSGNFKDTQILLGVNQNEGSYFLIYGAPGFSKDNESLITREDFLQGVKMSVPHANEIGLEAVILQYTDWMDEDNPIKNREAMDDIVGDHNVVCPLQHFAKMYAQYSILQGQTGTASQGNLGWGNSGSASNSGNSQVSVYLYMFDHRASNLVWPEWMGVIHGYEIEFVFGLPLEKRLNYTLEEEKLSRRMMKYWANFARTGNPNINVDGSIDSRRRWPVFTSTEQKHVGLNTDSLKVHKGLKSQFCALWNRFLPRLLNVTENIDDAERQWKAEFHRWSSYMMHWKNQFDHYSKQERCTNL

Structure (SMILES)	IC50 [1] [µM]	IC50 (equine BChE) [µM]
CCOc1ccc(C=NNC(=S)NCC(=O)c2cccc(C)c2)cc1 [Compound 5, 2-(4-Ethoxybenzylidene)-N-(2-oxo-2-(m-tolyl)ethyl)hydrazine-1-carbothioamide]	295.12 ± 0.12	
CCOc1ccc(C=NNC(=S)NCC(=O)c2ccc(Br)cc2)cc1 [Compound 6, N-(2-(4-Bromophenyl)-2-oxoethyl)-2-(4-ethoxybenzylidene)hydrazine-1-carbothioamide]	160.04 ± 0.02	190.21 ± 0.13
CCOc1ccc(C=NNC(=S)NCC(=O)c2ccc(Cl)cc2)cc1 [Compound 7, N-(2-(4-Chlorophenyl)-2-oxoethyl)-2-(4-ethoxybenzylidene)hydrazine-1-carbothioamide]	140.52 ± 0.11	
CCOc1ccc(C=NNC(=S)NCC(=O)c2ccccc2)cc1 [Compound 8, 2-(4-Ethoxybenzylidene)-N-(2-oxo-2-phenylethyl)hydrazine-1-carbothioamide]	220.22 ± 0.14	260.21 ± 0.23
CCOc1ccc(C=NNC(=S)NCC(=O)c2ccccc2O)cc1 [Compound 9, 2-(4-Ethoxybenzylidene)-N-(2-(2-hydroxyphenyl)-2-oxoethyl)hydrazine-1-carbothioamide]		147.2 ± 0.09
CCOc1ccc(C=NNC(=S)NCC(=O)c2ccc(Cl)cc2Cl)cc1 [Compound 10, N-(2-(2,4-Dichlorophenyl)-2-oxoethyl)-2-(4-ethoxybenzylidene)hydrazine-1-carbothioamide]	275.71 ± 0.12	
Cc1ccc(C(=O)CNC(=S)NN=Cc2ccc([N+](=O)[O-])cc2)cc1 [Compound 12, 2-(4-Nitrobenzylidene)-N-(2-oxo-2-(p-tolyl)ethyl)hydrazine-1-carbothioamide]	280.24 ± 0.21	260.38 ± 0.25
O=C(CNC(=S)NN=Cc1ccc([N+](=O)[O-])cc1)c1ccccc1Br [Compound 17, N-(2-(2-Bromophenyl)-2-oxoethyl)-2-(4-nitrobenzylidene)hydrazine-1-carbothioamide]	114.6 ± 0.15	150.4 ± 0.18
